Measurements reported in patent US20240009174A1, “METHODS FOR DISRUPTING MITOCHONDRIAL UNFOLDED PROTEIN RESPONSE” (Health Research, Inc., priority 2020, published 2024).

Columns and labels:
TKO PCa cells = test: mitoROS, mitoMass and apoptosis in TKO PCa cells; type: cell-based, mouse; conditions: data not shown
Experimental: (§1) Identification of novel inhibitor of HSP60-ClpP interaction that disrupts UPR^mt function and induces PCa cell death. Having shown that two arms of UPR^mt, HSP60 chaperonin and ClpP protease interact and play critical role in PCa cell survival, an in silico analysis was performed and a small molecule library (developed by Enamine Ltd) was screened to identify drugs targeting the apical domain of HSP60 critical for its interaction with ClpP. 9 compounds (A-I) were identified and screened for their cell death inducing potential in PCa cells (data not shown). […] Colony forming ability of PCa cells was inhibited by DCEM1 treatment (data not shown).

RWPE-1 cells = test: Apoptosis in non-carcinoma RWPE-1 cells (Annexin V/PI labeling); type: cell-based; conditions: 24 h and 48 h, doses 5, 10, 20
Experimental: FIG. 9. Structure of DCEM1 is shown in (A). (B) Human prostate epithelial non carcinoma RWPE-1 cells were treated with DCEM1 at indicated doses for 24 h and 48 h and apoptotic cells were quantified by Annexin V/PI labeling as described in material and methods. In (B), the bars in each series from left to right are DMSO, 5, 10, and 20.
as §1

LNCaP and PC-3 cells [1] = test: Mitochondrial membrane potential (mitoMP); type: cell-based
Experimental: (§2) FIG. 7. Pharmacological inhibition of HSP60-ClpP interaction induces metabolic stress in PCa cells. (A) LNCaP and PC-3 cells were pre-treated with either rotenone or antimycin-A followed by DCEM1 treatment and mitochondrial ROS was analyzed as described in material and methods (data represented as fold change compared to control). In (A), the bars in each series from left to right are control, DCEM1, Rot+DCEM1, Anti A+DCEM1, Rot, and Anti A (B) ClpP protein was over-expressed in LNCaP and PC-3 cells followed by DCEM1 treatment and mitochondrial ROS was analyzed as described in material and methods (Data represented as fold change compared to control). […] (C) ClpP protein was over-expressed in LNCaP and PC-3 cells followed by DCEM1 treatment and level of poly-ubiquitinated protein was analyzed by western blotting. (D) ClpP protein was over-expressed in LNCaP and PC-3 cells followed by DCEM1 treatment and DEVDase activity was analyzed as described in material and methods (Data represented as fold change compared to control). […] (E) Mitochondrial membrane potential (mitoMP) was analyzed in LNCaP and PC-3 cells treated with DCEM1 as described in material and methods (Data represented as fold change compared to control). […] (F) ATP level was analyzed in LNCaP and PC-3 cells treated with DCEM1 as described in material and methods (Data represented as fold change compared to control). […]

PC-3 cells = test: Protein expression of nuclear encoded OXPHOS subunits; type: cell-based
LNCaP and PC-3 cells [2] = test: AMPK and mTOR signaling pathways / autophagy activation; type: cell-based; conditions: PCa cells
Experimental: FIG. 7. Pharmacological inhibition of HSP60-ClpP interaction induces metabolic stress in PCa cells. (A) LNCaP and PC-3 cells were pre-treated with either rotenone or antimycin-A followed by DCEM1 treatment and mitochondrial ROS was analyzed as described in material and methods (data represented as fold change compared to control). In (A), the bars in each series from left to right are control, DCEM1, Rot+DCEM1, Anti A+DCEM1, Rot, and Anti A (B) ClpP protein was over-expressed in LNCaP and PC-3 cells followed by DCEM1 treatment and mitochondrial ROS was analyzed as described in material and methods (Data represented as fold change compared to control). In (B), the bars in each series from left to right are DMSO and DCEM1. (C) ClpP protein was over-expressed in LNCaP and PC-3 cells followed by DCEM1 treatment and level of poly-ubiquitinated protein was analyzed by western blotting. (D) ClpP protein was over-expressed in LNCaP and PC-3 cells followed by DCEM1 treatment and DEVDase activity was analyzed as described in material and methods (Data represented as fold change compared to control). In (D), the bars in each series from left to right are DMSO and DCEM1. (E) Mitochondrial membrane potential (mitoMP) was analyzed in LNCaP and PC-3 cells treated with DCEM1 as described in material and methods (Data represented as fold change compared to control). In (E), the bars in each series from left to right are DMSO, 5, and 10. (F) ATP level was analyzed in LNCaP and PC-3 cells treated with DCEM1 as described in material and methods (Data represented as fold change compared to control). In (F), the bars in each series from left to right are 0, 5, 10, and 20. (G) Oxygen consumption rate was analyzed in PC-3 cells treated with DCEM1 as described in material and methods and represented as basal and maximal respiration rate; Spare respiratory capacity and ATP production potential. […]
Abrogation of HSP60-ClpP interaction by DCEM1 induces metabolic stress in PCa cells. […] Since ATP depletion/reduction induces autophagy, autophagy activation in PCa cells was analyzed in response to DCEM1 treatment.

LNCaP and PC-3 cells [3] = test: Cellular ATP level; type: cell-based
Experimental: as §2

LNCaP and PC-3 cells [4] = test: DEVDase (caspase) activity in cell lysates; type: cell-based; conditions: 24 and 48 hours
Experimental: FIG. 6. Pharmacological inhibition of HSP60-ClpP interaction induces UPR^mt and PCa cell death. (A) Docking of DCEM1 into apical domain of HSP60. (B) LNCaP and PC-3 cells were treated with DCEM1 for 24 hours and HSP60-ClpP interaction was analyzed by co-immunoprecipitation assay. (C) LNCaP and PC-3 cells were treated with DCEM1 for 24 hours and mitoROS levels were analyzed by flow cytometry using mitoSOX dye. (D) LNCaP and PC-3 cells were treated with DCEM1 for 24 hours and poly-Ub protein levels were analyzed by western blotting. (E) LNCaP and PC-3 cells were treated with DCEM1 for 24 and 48 hours and apoptotic cell populations were analyzed by flow cytometry using Annexin V FITC/PI method as explained in materials and methods. […] (F) LNCaP and PC-3 cells were treated with DCEM1 for 24 and 48 hours and lysates were prepared and analyzed for DEVDase activity using specific peptide substrate. […] (G) LNCaP and PC-3 cells were pre-treated with SKQ1 followed by DCEM1 treatment and analyzed for cell viability by MTT assay. (H) LNCaP and PC-3 cells were treated with either DCEM1 or H2O2 (200 μM) for 24 hours and total DNA were isolated and analyzed for mtDNA damage as described in materials and methods.
FIG. 7. […] (C) ClpP protein was over-expressed in LNCaP and PC-3 cells followed by DCEM1 treatment and level of poly-ubiquitinated protein was analyzed by western blotting. […]

[5] = system: PCa cells (LNCaP and PC-3); test: Cell death / apoptosis in PCa cells (Annexin V FITC/PI flow cytometry); type: cell-based
Experimental: FIG. 6. Pharmacological inhibition of HSP60-ClpP interaction induces UPR^mt and PCa cell death. (A) Docking of DCEM1 into apical domain of HSP60. (B) LNCaP and PC-3 cells were treated with DCEM1 for 24 hours and HSP60-ClpP interaction was analyzed by co-immunoprecipitation assay. (C) LNCaP and PC-3 cells were treated with DCEM1 for 24 hours and mitoROS levels were analyzed by flow cytometry using mitoSOX dye. (D) LNCaP and PC-3 cells were treated with DCEM1 for 24 hours and poly-Ub protein levels were analyzed by western blotting. (E) LNCaP and PC-3 cells were treated with DCEM1 for 24 and 48 hours and apoptotic cell populations were analyzed by flow cytometry using Annexin V FITC/PI method as explained in materials and methods. In (E) top panel, the bars in each series from left to right are control, 5, 10, and 20, and in (E) bottom panel, the bars in each series from left to right are DMSO, 5, 10, and 20. (F) LNCaP and PC-3 cells were treated with DCEM1 for 24 and 48 hours and lysates were prepared and analyzed for DEVDase activity using specific peptide substrate. […] (G) LNCaP and PC-3 cells were pre-treated with SKQ1 followed by DCEM1 treatment and analyzed for cell viability by MTT assay. (H) LNCaP and PC-3 cells were treated with either DCEM1 or H2O2 (200 μM) for 24 hours and total DNA were isolated and analyzed for mtDNA damage as described in materials and methods. […]

**Q.** For `CCOc1cc(CNCc2nc3ccccc3[nH]2)ccc1OCc1cccs1` [DCEM1], which “mitoROS and mitoMass in TKO PCa cells” value (TKO PCa cells; cells established from TKO mouse prostate tumor tissue) is on record?
**A.** induced mitoROS and mitoMass

**Q.** And the “apoptotic cell death in TKO PCa cells” value (TKO PCa cells)?
**A.** induced robust apoptotic cell death

**Q.** And the “effect (cell death/apoptosis) on non-carcinoma prostate epithelial RWPE-1 cells” value (RWPE-1 cells)?
**A.** no effect

**Q.** What about the mitochondrial membrane potential (LNCaP and PC-3 cells [1]) of the same compound?
**A.** robustly depolarized mitochondrial membrane

**Q.** And the “nuclear encoded subunits of OXPHOS Complexes” value (PC-3 cells)?
**A.** downregulation of nuclear encoded subunits of OXPHOS Complexes

**Q.** What about the ULK1 phosphorylation (LNCaP and PC-3 cells [2]) of the same compound?
**A.** enhanced phosphorylation at serine 555 residue and decreased phosphorylation at serine 757 residue

**Q.** What about the mTOR signaling (LNCaP and PC-3 cells [2]) of the same compound?
**A.** inhibited mTOR signaling

**Q.** What about the “p-AMPKa levels and LC3B cleavage” value (LNCaP and PC-3 cells [2]) of the same compound?
**A.** Robust increase

**Q.** And the “cellular ATP” value (LNCaP and PC-3 cells [3])?
**A.** reduction of cellular ATP

**Q.** What about the “caspase (DEVDase) activity” value (LNCaP and PC-3 cells [4]) of the same compound?
**A.** robust caspase activity

**Q.** What about the apoptotic cell death ([5]; LNCaP and PC-3 cells, 24 and 48 hours, Annexin V FITC/PI) of the same compound?
**A.** apoptotic cell death was observed

**Q.** What about the “cell death in PCa cells” value ([5]; PCa cells) of the same compound?
**A.** robust cell death
